From US20080051387A1, “TETRAHYDROPYRIDO[3,4-D]PYRIMIDINES AND RELATED ANALOGUES” (priority 2006, published 2008)

biological target: T1, chimeric human H3 receptor (Homo sapiens, UniProt Q9Y5N1); assay: Chimeric human H3 receptor screening GTP binding assay (inhibition of histamine-stimulated GTP-gamma35S binding, Example 8); assay type: biochemical; settings: symbol ! in Ki; test compound 4 μM, 1 μM histamine; read-out: percent inhibition of agonist-induced GTP-gammaS binding to H3
T1 construct: rat Galpha-i2 (Gnai2, rat); made in house; host or cells: Sf9 insect cells (baculovirus); P2 membranes
Summary of the method: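 Sf9 membranes co-expressing chimeric human H3 receptor and heterotrimeric G-protein (35 μg protein) incubated 60 min at room temperature with 4 μM compound, 1 μM histamine and 125 pM GTP-gamma35S in pH 7.4 buffer with 10 μM GDP. Filter-bound radioactivity, nonspecific (10 μM GTP-gammaS) subtracted, reported as % inhibition of histamine signal.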

T1 sequence (Q9Y5N1 with tags, fused parts or gaps): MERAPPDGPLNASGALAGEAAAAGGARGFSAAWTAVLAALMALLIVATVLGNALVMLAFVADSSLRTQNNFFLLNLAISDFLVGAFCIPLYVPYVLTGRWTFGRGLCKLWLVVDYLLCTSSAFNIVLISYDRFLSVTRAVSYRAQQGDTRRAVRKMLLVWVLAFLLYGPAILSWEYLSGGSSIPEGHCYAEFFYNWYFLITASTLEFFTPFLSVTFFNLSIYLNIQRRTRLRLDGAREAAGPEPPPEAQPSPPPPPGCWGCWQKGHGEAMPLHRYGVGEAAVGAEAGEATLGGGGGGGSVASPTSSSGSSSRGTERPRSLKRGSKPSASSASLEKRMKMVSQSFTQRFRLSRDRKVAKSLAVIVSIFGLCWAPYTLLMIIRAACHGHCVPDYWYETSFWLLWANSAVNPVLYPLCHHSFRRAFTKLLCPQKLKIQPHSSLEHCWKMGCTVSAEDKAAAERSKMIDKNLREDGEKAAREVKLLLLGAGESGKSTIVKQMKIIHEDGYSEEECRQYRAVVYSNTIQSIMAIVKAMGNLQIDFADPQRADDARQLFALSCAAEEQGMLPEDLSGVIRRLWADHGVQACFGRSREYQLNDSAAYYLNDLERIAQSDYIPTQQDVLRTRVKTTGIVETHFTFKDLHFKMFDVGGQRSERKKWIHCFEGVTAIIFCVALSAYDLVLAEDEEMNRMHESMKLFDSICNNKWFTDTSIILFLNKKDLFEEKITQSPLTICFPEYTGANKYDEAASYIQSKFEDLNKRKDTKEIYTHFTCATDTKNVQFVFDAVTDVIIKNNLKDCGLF

inhibition at 4 µM | Structure (SMILES)
≥ 90% | Cc1cccc(C(C)N2CCc3c(ncnc3N3CCN(C4CCC4)CC3)C2)c1 (centres unmarked) [Compound 105, 4-(4-cyclobutylpiperazin-1-yl)-7-[1-(3-methylphenyl)ethyl]-5,6,7,8-tetrahydropyrido[3,4-d]pyrimidine]
≥ 90% | Cc1ccc(C(C)N2CCc3c(ncnc3N3CCN(C4CCC4)CC3)C2)cc1 (centres unmarked) [Compound 106, 4-(4-cyclobutylpiperazin-1-yl)-7-[1-(4-methylphenyl)ethyl]-5,6,7,8-tetrahydropyrido[3,4-d]pyrimidine]
≥ 90% | CC(c1nccn1C)N1CCc2c(ncnc2N2CCN(C3CCC3)CC2)C1 (centres unmarked) [Compound 107, 4-(4-cyclobutylpiperazin-1-yl)-7-[1-(1-methyl-1H-imidazol-2-yl)ethyl]-5,6,7,8-tetrahydropyrido[3,4-d]pyrimidine]
≥ 90% | CC(c1ccnc2ccccc12)N1CCc2c(ncnc2N2CCN(C3CCC3)CC2)C1 (centres unmarked) [Compound 108, 4-(4-cyclobutylpiperazin-1-yl)-7-(1-quinolin-4-ylethyl)-5,6,7,8-tetrahydropyrido[3,4-d]pyrimidine]
≥ 90% | CC(c1cnc2ccccc2c1)N1CCc2c(ncnc2N2CCN(C3CCC3)CC2)C1 (centres unmarked) [Compound 109, 4-(4-cyclobutylpiperazin-1-yl)-7-(1-quinolin-3-ylethyl)-5,6,7,8-tetrahydropyrido[3,4-d]pyrimidine]
≥ 90% | Cc1cccc(C(C)N2CCc3c(ncnc3N3CCN(C4CCC4)CC3)C2)n1 (centres unmarked) [Compound 110, 4-(4-cyclobutylpiperazin-1-yl)-7-[1-(6-methylpyridin-2-yl)ethyl]-5,6,7,8-tetrahydropyrido[3,4-d]pyrimidine]
≥ 90% | CC(c1ccc(N2CCOCC2)nc1)N1CCc2c(ncnc2N2CCN(C3CCC3)CC2)C1 (centres unmarked) [Compound 111, 4-(4-cyclobutylpiperazin-1-yl)-7-[1-(6-morpholin-4-ylpyridin-3-yl)ethyl]-5,6,7,8-tetrahydropyrido[3,4-d]pyrimidine]
≥ 90% | Cc1cc(C(C)N2CCc3c(ncnc3N3CCN(C4CCC4)CC3)C2)n(C)n1 (centres unmarked) [Compound 112, 4-(4-cyclobutylpiperazin-1-yl)-7-[1-(1,3-dimethyl-1H-pyrazol-5-yl)ethyl]-5,6,7,8-tetrahydropyrido[3,4-d]pyrimidine]
≥ 90% | COc1ccccc1C(C)N1CCc2c(ncnc2N2CCN(C3CCC3)CC2)C1 (centres unmarked) [Compound 113, 4-(4-cyclobutylpiperazin-1-yl)-7-[1-(2-methoxyphenyl)ethyl]-5,6,7,8-tetrahydropyrido[3,4-d]pyrimidine]
≥ 90% | COc1ccc(C(C)N2CCc3c(ncnc3N3CCN(C4CCC4)CC3)C2)c(OC)c1 (centres unmarked) [Compound 114, 4-(4-cyclobutylpiperazin-1-yl)-7-[1-(2,4-dimethoxyphenyl)ethyl]-5,6,7,8-tetrahydropyrido[3,4-d]pyrimidine]
≥ 90% | CC(C)c1ccc(C(C)N2CCc3c(ncnc3N3CCN(C4CCC4)CC3)C2)cc1 (centres unmarked) [Compound 115, 4-(4-cyclobutylpiperazin-1-yl)-7-[1-(4-isopropylphenyl)ethyl]-5,6,7,8-tetrahydropyrido[3,4-d]pyrimidine]
≥ 90% | CC(C)CC(C)N1CCc2c(ncnc2N2CCN(C3CCC3)CC2)C1 (centres unmarked) [Compound 116, 4-(4-cyclobutylpiperazin-1-yl)-7-(1,3-dimethylbutyl)-5,6,7,8-tetrahydropyrido[3,4-d]pyrimidine]
≥ 90% | CCC(C)N1CCc2c(ncnc2N2CCN(C3CCC3)CC2)C1 (centres unmarked) [Compound 117, 7-sec-butyl-4-(4-cyclobutylpiperazin-1-yl)-5,6,7,8-tetrahydropyrido[3,4-d]pyrimidine]
≥ 90% | CCCC(C)N1CCc2c(ncnc2N2CCN(C3CCC3)CC2)C1 (centres unmarked) [Compound 118, 4-(4-cyclobutylpiperazin-1-yl)-7-(1-methylbutyl)-5,6,7,8-tetrahydropyrido[3,4-d]pyrimidine]
≥ 90% | CCCCC(C)N1CCc2c(ncnc2N2CCN(C3CCC3)CC2)C1 (centres unmarked) [Compound 119, 4-(4-cyclobutylpiperazin-1-yl)-7-(1-methylpentyl)-5,6,7,8-tetrahydropyrido[3,4-d]pyrimidine]
≥ 90% | CCCCCC(C)N1CCc2c(ncnc2N2CCN(C3CCC3)CC2)C1 (centres unmarked) [Compound 120, 4-(4-cyclobutylpiperazin-1-yl)-7-(1-methylhexyl)-5,6,7,8-tetrahydropyrido[3,4-d]pyrimidine]
≥ 90% | CC(C)C(C)N1CCc2c(ncnc2N2CCN(C3CCC3)CC2)C1 (centres unmarked) [Compound 121, 4-(4-cyclobutylpiperazin-1-yl)-7-(1,2-dimethylpropyl)-5,6,7,8-tetrahydropyrido[3,4-d]pyrimidine]
≥ 90% | CCC(C)C(C)N1CCc2c(ncnc2N2CCN(C3CCC3)CC2)C1 (centres unmarked) [Compound 122, 4-(4-cyclobutylpiperazin-1-yl)-7-(1,2-dimethylbutyl)-5,6,7,8-tetrahydropyrido[3,4-d]pyrimidine]

inhibition at 4 µM | Structure (SMILES)
≥ 90% | CCC(CC)C(C)N1CCc2c(ncnc2N2CCN(C3CCC3)CC2)C1 (centres unmarked) [Compound 123, 4-(4-cyclobutylpiperazin-1-yl)-7-(2-ethyl-1-methylbutyl)-5,6,7,8-tetrahydropyrido[3,4-d]pyrimidine]
≥ 90% | CC(C1CC1)N1CCc2c(ncnc2N2CCN(C3CCC3)CC2)C1 (centres unmarked) [Compound 124, 4-(4-cyclobutylpiperazin-1-yl)-7-(1-cyclopropylethyl)-5,6,7,8-tetrahydropyrido[3,4-d]pyrimidine]
≥ 90% | CCCC(C)C(C)N1CCc2c(ncnc2N2CCN(C3CCC3)CC2)C1 (centres unmarked) [Compound 125, 4-(4-cyclobutylpiperazin-1-yl)-7-(1,2-dimethylpentyl)-5,6,7,8-tetrahydropyrido[3,4-d]pyrimidine]
≥ 90% | CC(C1CCCCC1)N1CCc2c(ncnc2N2CCN(C3CCC3)CC2)C1 (centres unmarked) [Compound 126, 4-(4-cyclobutylpiperazin-1-yl)-7-(1-cyclohexylethyl)-5,6,7,8-tetrahydropyrido[3,4-d]pyrimidine]
≥ 90% | CC(C1CCOC1)N1CCc2c(ncnc2N2CCN(C3CCC3)CC2)C1 (centres unmarked) [Compound 127, 4-(4-cyclobutylpiperazin-1-yl)-7-[1-(tetrahydrofuran-3-yl)ethyl]-5,6,7,8-tetrahydropyrido[3,4-d]pyrimidine]
≥ 90% | Cc1ccc(C(C)N2CCc3c(ncnc3N3CCN(C4CCC4)CC3)C2)cc1C (centres unmarked) [Compound 128, 4-(4-cyclobutylpiperazin-1-yl)-7-[1-(3,4-dimethylphenyl)ethyl]-5,6,7,8-tetrahydropyrido[3,4-d]pyrimidine]
≥ 90% | CC(c1ccc2c(c1)OCCO2)N1CCc2c(ncnc2N2CCN(C3CCC3)CC2)C1 (centres unmarked) [Compound 129, 4-(4-cyclobutylpiperazin-1-yl)-7-[1-(2,3-dihydro-1,4-benzodioxin-6-yl)ethyl]-5,6,7,8-tetrahydropyrido[3,4-d]pyrimidine]
≥ 90% | CC(c1ccc2ccccc2n1)N1CCc2c(ncnc2N2CCN(C3CCC3)CC2)C1 (centres unmarked) [Compound 130, 4-(4-cyclobutylpiperazin-1-yl)-7-(1-quinolin-2-ylethyl)-5,6,7,8-tetrahydropyrido[3,4-d]pyrimidine]
≥ 90% | COc1cccc(C(C)N2CCc3c(ncnc3N3CCN(C4CCC4)CC3)C2)c1OC (centres unmarked) [Compound 131, 4-(4-cyclobutylpiperazin-1-yl)-7-[1-(2,3-dimethoxyphenyl)ethyl]-5,6,7,8-tetrahydropyrido[3,4-d]pyrimidine]
≥ 90% | COc1ccc(OC)c(C(C)N2CCc3c(ncnc3N3CCN(C4CCC4)CC3)C2)c1 (centres unmarked) [Compound 132, 4-(4-cyclobutylpiperazin-1-yl)-7-[1-(2,5-dimethoxyphenyl)ethyl]-5,6,7,8-tetrahydropyrido[3,4-d]pyrimidine]
≥ 90% | CC(c1ccc(N2CCCC2)nc1)N1CCc2c(ncnc2N2CCN(C3CCC3)CC2)C1 (centres unmarked) [Compound 133, 4-(4-cyclobutylpiperazin-1-yl)-7-[1-(6-pyrrolidin-1-ylpyridin-3-yl)ethyl]-5,6,7,8-tetrahydropyrido[3,4-d]pyrimidine]
≥ 90% | Cc1c(F)cccc1C(C)N1CCc2c(ncnc2N2CCN(C3CCC3)CC2)C1 (centres unmarked) [Compound 134, 4-(4-cyclobutylpiperazin-1-yl)-7-[1-(3-fluoro-2-methylphenyl)ethyl]-5,6,7,8-tetrahydropyrido[3,4-d]pyrimidine]
≥ 90% | CC(c1ccccc1Cl)N1CCc2c(ncnc2N2CCN(C3CCC3)CC2)C1 (centres unmarked) [Compound 135, 7-[1-(2-chlorophenyl)ethyl]-4-(4-cyclobutylpiperazin-1-yl)-5,6,7,8-tetrahydropyrido[3,4-d]pyrimidine]
≥ 90% | CC(c1ccc(Cl)cc1Cl)N1CCc2c(ncnc2N2CCN(C3CCC3)CC2)C1 (centres unmarked) [Compound 136, 4-(4-cyclobutylpiperazin-1-yl)-7-[1-(2,4-dichlorophenyl)ethyl]-5,6,7,8-tetrahydropyrido[3,4-d]pyrimidine]
≥ 90% | CC(c1ccc(N2CCCC2)cc1)N1CCc2c(ncnc2N2CCN(C3CCC3)CC2)C1 (centres unmarked) [Compound 137, 4-(4-cyclobutylpiperazin-1-yl)-7-[1-(4-pyrrolidin-1-ylphenyl)ethyl]-5,6,7,8-tetrahydropyrido[3,4-d]pyrimidine]
≥ 90% | FC(F)(F)c1ccc(N2CCc3c(ncnc3N3CCN(C4CCC4)CC3)C2)nc1 [Compound 138, 4-(4-cyclobutylpiperazin-1-yl)-7-[5-(trifluoromethyl)pyridin-2-yl]-5,6,7,8-tetrahydropyrido[3,4-d]pyrimidine]
≥ 90% | COC(=O)c1ccc(CN2CCc3c(ncnc3N3CCN(C4CCC4)CC3)C2)cc1 [Compound 139, methyl 4-{[4-(4-cyclobutylpiperazin-1-yl)-5,8-dihydropyrido[3,4-d]pyrimidin-7(6H)-yl]methyl}benzoate]
